Measurements taken from patent publication US11560373B2, “Compounds and their use as PDE4 activators” (Mironid Limited, priority 2018, dated 2023).

How the values were obtained:
PDE4B1 = target: T1, PDE4B1 (Homo sapiens, UniProt Q07343); assay: PDE assay, [3H]cAMP hydrolysis by HEK-PDE4B1 cell lysate cytosol fraction; type: biochemical; settings: mean % increase in counts over basal activity
T1 construct: stably expressed the full-length human PDE4D5, PDE4B1 and PDE4A4 long isoforms; made in house

MDCK cells [1] = assay: Reduction of intracellular cAMP levels in forskolin stimulated MDCK cells; type: cell-based, canine; settings: compound 40 min prior to forskolin (1 μM) for 20 min
Method: MDCK cells were seeded at 100,000 cells per well, and left to adhere overnight. The cells were then treated with the test compound for 40 minutes, prior to stimulation with forskolin (1 μM, Sigma) for 20 minutes. Media was aspirated, and hydrochloric acid (0.1 M) was added to lyse the cells. The cAMP assay (Enzo Life Sciences) was performed according to the manufacturer's instructions.

PDE4D5 = target: T2, PDE4D5 (Homo sapiens, UniProt Q08499); assay: PDE assay, [3H]cAMP hydrolysis by HEK-PDE4D5 cell lysate cytosol fraction; type: biochemical; settings: 30 μM; mean % increase in counts over basal activity
T2 construct: stably expressed the full-length human PDE4D5, PDE4B1 and PDE4A4 long isoforms; made in house
Method: (§1) HEK 293 cells were transfected with pDEST™ PDE4 expression vectors using Lipofectamine LTX/Plus reagent (Invitrogen) as outlined by the manufacturer and clonal isolates expanded to obtain cell lines that stably expressed the full-length human PDE4D5, PDE4B1 and PDE4A4 long isoforms and the full length human PDE4B2 short isoform. These were called the HEK-PDE4D5, HEK-PDE4B1, HEK-PDE4A4 and HEK-PDE4B2 cell lines, respectively.
(§2) HEK-PDE4D5 cells were seeded out in 100 mm plates and incubated at 37° C. in an atmosphere of 5% CO2, 95% air. Cell lysates were prepared using KHEM buffer [50 mM KCl, 10 mM EGTA, 50 mM HEPES (pH 7.2), 1.92 mM MgCl2].
(§3) To prepare the cell lysates, the 100 mm plates containing the cells were placed on ice and washed with ice-cold PBS (phosphate buffered saline, pH 7.4). KHEM buffer (500 μl) was added to the cells. Cells were then scraped off the plate and triturated using a needle (BD Microlance™ 0.8, 40 mm). The lysed cells were then centrifuged at 2000 rpm for 10 minutes to remove cell debris and the supernatant (cell lysate containing recombinant PDE4D5) was transferred to a fresh tube and kept on ice.
(§4) The cell lysate containing recombinant PDE4D5 was transferred into a centrifuge tube and placed into an ultracentrifuge (BECKMAN COULTER) and spun at high speed (100,000 g) for 30 minutes at 4° C. The cytosol fraction was then collected and its protein amount determined using a BCA protein assay.
(§5) PDE assays were performed in thin walled V-bottomed 96-well plates. The assays were performed at a final concentration of 10 mM Tris/5 mM MgCl2 plus PDE4D5 cell lysate cytosol fraction, containing over-expressed PDE4D5, with and without test compound. The lysate/compound mix were incubated together for 15 min at room temperature on an orbital shaker prior to addition of [^3H] cAMP (final concentration 1 μM [^3H] cAMP; Perkin Elmer) to a final volume of 50 μl per reaction. The reactions were then incubated for 10 minutes at 30° C., terminated by heating for 2 min at 95° C. and allowed to cool. Snake venom (12.5 μl of 1 mg/ml; Crotalus atrox, Sigma) was then added and the plates were agitated and incubated for a further 15 minutes at 30° C. Dowex ion exchange resin (Sigma, chloride form, 200-400 mesh; 200 μl; prepared as a 1:1 Dowex: water stock, thoroughly re-suspended and diluted 2:1 with ethanol) was then added to each well and the plates incubated for 15 min at room temperature on an orbital shaker ensuring sufficient agitation for resin suspension (550 RPM). The reaction mixture was then transferred to a 96 well filter plate (Millipore; […] pore size) and filtered into a receiving 96-well plate to remove the dowex suspension. 30 μL of the filtered solution was then transferred to the wells of an Opti-plate (Perkin Elmer) 96 well assay plate and 120 μl of Microscint 40 scintillation fluid was added. The plate was then placed on an orbital shaker for 10 min at high speed (900 RPM) to mix the sample with scintillation fluid prior to quantitation using a plate based scintillation counter (Top-Count).
(§6) The % increase in counts in the presence of test compound at a particular concentration indicates the % increase in enzyme activity at that concentration.

PDE4B2 = target: T3, PDE4B2 (Homo sapiens, UniProt Q07343); assay: PDE assay, [3H]cAMP hydrolysis by HEK-PDE4B2 cell lysate cytosol fraction (short form); type: biochemical; settings: mean % increase in counts over basal activity
T3 construct: the full length human PDE4B2 short isoform; made in house
Method: as §1, §2, §3, §4, §5, §6

MDCK cells [2] = assay: Inhibition of in vitro cyst formation in 3D culture of MDCK cells; type: cell-based, canine; settings: 300 nM prostaglandin E2, 10 days; % Cyst Volume compared to vehicle
Excerpt: In this study, the well-established three-dimensional (3D) MDCK cell model is used to investigate the effects of PDE4 long form activators on the formation of kidney cysts and evaluate their potential in the treatment of polycystic kidney diseases. 3D cysts are generated based on the method of Mao et al. (Mao, Z., Streets, A. J., Ong, A. C. M. Am. J. Physiol. Renal Physiol. 300(6): F1375-F1384, 2011), with some modifications.
Type 1 collagen (Invitrogen) is first prepared on ice by neutralising an acidic stock solution (3 mg/ml) with 17 mM NaOH and diluting it to 1 mg/ml with DMEM, supplemented with 2% (v/v) FBS, 2 mM L-glutamine, 1,000 U penicillin and 1,000 μg streptomycin (DMEM-2% FBS). […]
Phase-contrast images are obtained on the Motic microscope (×4 magnification). 8 images are taken per condition and the cyst diameter measured (up to 150 cyst measurements per well). Cyst spheroid volume is calculated using the formula 4/3πr^3 where r is the radius of the spheroid. A mean cyst volume is then calculated per well. The mean cyst volume and standard deviation between the duplicate wells is then calculated and expressed as a % Cyst Volume compared to the vehicle only (DMSO+300 nM PGE2) control wells. […]

PDE4A4 = target: T4, PDE4A4 (Homo sapiens, UniProt P27815); assay: PDE assay, [3H]cAMP hydrolysis by HEK-PDE4A4 cell lysate cytosol fraction; type: biochemical; settings: mean % increase in counts over basal activity
T4 construct: stably expressed the full-length human PDE4D5, PDE4B1 and PDE4A4 long isoforms; made in house
T4 sequence (P27815 whole entry, canonical isoform): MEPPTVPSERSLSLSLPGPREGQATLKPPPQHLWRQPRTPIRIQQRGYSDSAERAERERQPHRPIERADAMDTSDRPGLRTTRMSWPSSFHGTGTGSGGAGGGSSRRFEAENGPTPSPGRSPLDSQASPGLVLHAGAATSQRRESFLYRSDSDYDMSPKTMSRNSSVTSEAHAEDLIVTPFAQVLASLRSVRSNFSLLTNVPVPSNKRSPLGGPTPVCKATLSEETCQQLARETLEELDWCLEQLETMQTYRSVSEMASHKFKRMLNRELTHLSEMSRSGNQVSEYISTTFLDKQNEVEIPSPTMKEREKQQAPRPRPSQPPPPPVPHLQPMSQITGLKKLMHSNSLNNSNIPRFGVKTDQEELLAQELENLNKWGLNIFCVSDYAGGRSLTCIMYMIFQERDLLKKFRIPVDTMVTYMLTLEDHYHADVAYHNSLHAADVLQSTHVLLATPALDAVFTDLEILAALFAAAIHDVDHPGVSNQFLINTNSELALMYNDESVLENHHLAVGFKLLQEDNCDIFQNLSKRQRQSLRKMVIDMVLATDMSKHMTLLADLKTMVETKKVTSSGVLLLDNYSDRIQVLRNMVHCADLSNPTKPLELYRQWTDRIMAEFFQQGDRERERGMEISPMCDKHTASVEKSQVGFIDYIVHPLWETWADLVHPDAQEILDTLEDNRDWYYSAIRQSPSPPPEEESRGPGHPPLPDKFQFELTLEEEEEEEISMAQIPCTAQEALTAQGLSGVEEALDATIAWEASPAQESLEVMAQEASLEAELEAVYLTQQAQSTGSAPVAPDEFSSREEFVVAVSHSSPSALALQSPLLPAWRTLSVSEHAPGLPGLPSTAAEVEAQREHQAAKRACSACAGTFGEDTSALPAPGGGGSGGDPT

T3 sequence (Q07343 1-564 isoform Q07343-2): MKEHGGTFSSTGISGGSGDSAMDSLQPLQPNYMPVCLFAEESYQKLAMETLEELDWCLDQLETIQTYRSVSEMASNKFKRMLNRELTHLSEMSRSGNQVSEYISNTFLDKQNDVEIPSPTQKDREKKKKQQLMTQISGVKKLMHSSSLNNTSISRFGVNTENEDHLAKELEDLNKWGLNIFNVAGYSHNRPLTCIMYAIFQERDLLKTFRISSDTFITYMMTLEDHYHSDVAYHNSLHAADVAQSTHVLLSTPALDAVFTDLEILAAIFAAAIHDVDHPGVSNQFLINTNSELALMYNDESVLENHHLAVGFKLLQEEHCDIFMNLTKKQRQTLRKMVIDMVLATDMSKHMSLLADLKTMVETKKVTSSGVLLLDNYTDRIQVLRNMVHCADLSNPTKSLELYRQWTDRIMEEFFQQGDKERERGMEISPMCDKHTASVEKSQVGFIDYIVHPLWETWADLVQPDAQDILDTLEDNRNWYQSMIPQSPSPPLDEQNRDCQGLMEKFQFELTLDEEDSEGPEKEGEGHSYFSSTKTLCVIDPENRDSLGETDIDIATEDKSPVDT
T2 sequence (Q08499 1-745 isoform Q08499-6): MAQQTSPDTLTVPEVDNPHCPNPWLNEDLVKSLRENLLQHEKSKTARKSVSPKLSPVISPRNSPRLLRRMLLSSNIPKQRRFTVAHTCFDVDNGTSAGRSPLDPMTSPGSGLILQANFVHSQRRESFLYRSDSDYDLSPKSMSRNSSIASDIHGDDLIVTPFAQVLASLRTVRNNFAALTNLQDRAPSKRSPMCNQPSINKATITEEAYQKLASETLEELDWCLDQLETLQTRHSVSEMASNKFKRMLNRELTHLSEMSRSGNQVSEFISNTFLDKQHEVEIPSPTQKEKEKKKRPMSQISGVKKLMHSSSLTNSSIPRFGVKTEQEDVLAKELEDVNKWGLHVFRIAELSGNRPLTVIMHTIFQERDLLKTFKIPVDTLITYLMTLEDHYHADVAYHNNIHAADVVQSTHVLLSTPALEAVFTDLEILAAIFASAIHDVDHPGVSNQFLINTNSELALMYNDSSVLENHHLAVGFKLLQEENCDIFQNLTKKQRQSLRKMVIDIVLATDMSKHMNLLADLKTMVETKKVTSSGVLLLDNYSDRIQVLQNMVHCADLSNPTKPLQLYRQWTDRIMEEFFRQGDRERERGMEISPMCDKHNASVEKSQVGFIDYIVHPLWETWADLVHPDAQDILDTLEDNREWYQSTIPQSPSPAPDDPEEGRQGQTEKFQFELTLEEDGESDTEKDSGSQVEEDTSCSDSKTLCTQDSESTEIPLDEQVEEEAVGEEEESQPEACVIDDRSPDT
T1 sequence (Q07343 whole entry, canonical isoform): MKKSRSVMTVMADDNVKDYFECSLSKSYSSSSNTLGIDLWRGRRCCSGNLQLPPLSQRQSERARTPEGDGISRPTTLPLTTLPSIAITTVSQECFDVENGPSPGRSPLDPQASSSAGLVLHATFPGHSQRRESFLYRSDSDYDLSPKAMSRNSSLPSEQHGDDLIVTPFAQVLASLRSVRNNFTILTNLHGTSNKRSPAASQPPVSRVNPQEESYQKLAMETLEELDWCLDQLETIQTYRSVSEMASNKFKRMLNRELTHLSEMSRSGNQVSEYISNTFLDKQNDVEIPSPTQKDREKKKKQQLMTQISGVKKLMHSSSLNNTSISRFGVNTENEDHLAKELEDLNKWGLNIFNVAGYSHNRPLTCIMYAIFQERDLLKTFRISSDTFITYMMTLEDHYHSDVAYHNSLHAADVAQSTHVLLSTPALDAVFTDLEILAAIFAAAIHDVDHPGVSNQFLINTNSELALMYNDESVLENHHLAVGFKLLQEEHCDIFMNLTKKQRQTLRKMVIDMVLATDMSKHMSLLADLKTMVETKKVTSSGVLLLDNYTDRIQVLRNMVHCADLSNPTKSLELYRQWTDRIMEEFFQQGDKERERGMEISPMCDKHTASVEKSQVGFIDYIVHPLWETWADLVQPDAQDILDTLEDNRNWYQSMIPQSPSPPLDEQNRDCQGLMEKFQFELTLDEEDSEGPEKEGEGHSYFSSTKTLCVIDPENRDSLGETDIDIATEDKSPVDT

% increase in PDE4B1 activity at 30 μM (PDE4B1) [%] | activation at 30 µM (PDE4D5) [%] | % increase in PDE4B2 activity at 30 μM (PDE4B2) [%] | % increase in PDE4A4 activity at 30 μM (PDE4A4) [%] | Structure (SMILES) | intracellular cAMP levels in MDCK cells (FIG. 2) (MDCK cells [1]) | cyst formation in 3D culture of MDCK cells (FIG. 3) (MDCK cells [2])
99.4 |  |  |  | CCn1nc(-c2ccc(Cl)c(F)c2)nc1CC(=O)NCc1cccc(OC)c1 [Example 2, 2-[3-(4-Chloro-3-fluorophenyl)-1-ethyl-1H-1,2,4-triazol-5-yl]-N-(3-methoxybenzyl) acetamide] |  | 
 | 73.2 | −10.9 |  | CCn1nc(-c2ccc(Cl)c(F)c2)nc1CC(=O)NCc1cc(C)nc(C)c1 [Example 3, 2-[3-(4-Chloro-3-fluorophenyl)-1-ethyl-1H-1,2,4-triazol-5-yl]-N-((2,6-dimethylpyridin-4-yl)methyl)acetamide] | reduction in intracellular cAMP levels | inhibition of cyst formation

Continued, compound first:

Structure (SMILES) | % increase in PDE4B1 activity at 30 μM (PDE4B1) [%] | activation at 30 µM (PDE4D5) [%] | % increase in PDE4B2 activity at 30 μM (PDE4B2) [%] | % increase in PDE4A4 activity at 30 μM (PDE4A4) [%] | intracellular cAMP levels in MDCK cells (FIG. 2) (MDCK cells [1]) | cyst formation in 3D culture of MDCK cells (FIG. 3) (MDCK cells [2])
CCn1nc(-c2ccc(Cl)c(F)c2)nc1CC(=O)NCc1cccc(F)c1 [Example 1, 2-[3-(4-Chloro-3-fluorophenyl)-1-ethyl-1H-1,2,4-triazol-5-yl]-N-(3-fluorobenzyl) acetamide] | 79.1 |  |  |  |  | 
COCCn1nc(-c2ccc(Cl)c(F)c2)nc1CC(=O)NCc1cc(Cl)cc(Cl)c1 [Example 22, 2-[3-(4-Chloro-3-fluorophenyl)-1-(2-methoxyethyl)-1H-1,2,4-triazol-5-yl]-N-[(3,5-dichlorophenyl)methyl]acetamide] |  | 99.9 | −2.9 | 92.5 |  | 
CCn1nc(-c2ccc(Cl)c(OC(C)C)c2)nc1CC(=O)NCc1cc(Cl)cc(Cl)c1 [Example 34, 2-[3-(4-Chloro-3-isopropyloxyphenyl)-1-ethyl-1H-1,2,4-triazol-5-yl]-N-[(3,5-dichlorophenyl)methyl]acetamide] |  | 108 | −4.4 | 75.5 |  | 
